Measurements: ChEMBL document CHEMBL1201862, “PubChem BioAssay data set” (2004)
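Following 48 hours of exposure in 96-well plates, responses at five concentrations were used to interpolate endpoints linearly. GI50 marks 50% less growth.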 Calls of active or inactive are those of the source. Cut-off read from the data, not from the text of the source: active = GI50 up to about 1.1 µM and inactive = higher.

Tests used:
Experiment in all cases: inhibition of tumour cell growth, NCI panel, 48 h
NCI-H226 = test system: NCI-H226
A549 = test system: A549
SF-268 = test system: SF-268
Malme-3M = test system: Malme-3M
ACHN = test system: ACHN
SK-MEL-28 = test system: SK-MEL-28
M14 = test system: M14
TK-10 = test system: TK-10
EKVX = test system: EKVX
SN12C = test system: SN12C
NCI-H522 = test system: NCI-H522
A498 = test system: A498
SNB-75 = test system: SNB-75
MOLT-4 = test system: MOLT-4
PC-3 = test system: PC-3
HCT-15 = test system: HCT-15
OVCAR-5 = test system: OVCAR-5
CAKI-1 = test system: CAKI-1
HT-29 = test system: HT-29
HL-60 = test system: HL-60

CCOC(=O)c1c(N2CCCC2)[nH]c(=O)c(C(c2ccc(OC)cc2)c2c(O)c(C(=O)OCC)c(N3CCCC3)[nH]c2=O)c1O
GI50 (NCI-H226): > 100 µM (inactive)
GI50 (A549): > 100 µM (inactive)
GI50 (SF-268): 49.5 µM (inactive)
GI50 (Malme-3M): > 100 µM (inactive)
GI50 (ACHN): 56 µM (inactive)
GI50 (SK-MEL-28): > 100 µM (inactive)
GI50 (M14): > 100 µM (inactive)
GI50 (TK-10): 42.8 µM (inactive)
GI50 (EKVX): 44.8 µM (inactive)
GI50 (SN12C): > 100 µM (inactive)
GI50 (NCI-H522): > 100 µM (inactive)
GI50 (A498): > 100 µM (inactive)
GI50 (SNB-75): 21.3 µM (inactive)
GI50 (MOLT-4): > 100 µM (inactive)
GI50 (PC-3): > 100 µM (inactive)
GI50 (HCT-15): > 100 µM
GI50 (OVCAR-5): 52.7 µM (inactive)
GI50 (CAKI-1): 28.4 µM (inactive)

C=CCc1cccc(C(=O)/C=C(O)/C=C/c2ccccc2Cl)c1O
GI50 (NCI-H226): 18.8 µM (inactive)
GI50 (A549): 8.91 µM (inactive)
GI50 (SF-268): 20.5 µM (inactive)
GI50 (ACHN): 23.3 µM (inactive)
GI50 (SK-MEL-28): 10.5 µM (inactive)
GI50 (M14): 24.5 µM (inactive)
GI50 (HT-29): 9.93 µM (inactive)
GI50 (TK-10): 42.7 µM (inactive)
GI50 (EKVX): 29.5 µM (inactive)
GI50 (SN12C): 25.6 µM (inactive)
GI50 (NCI-H522): 11.2 µM (inactive)
GI50 (A498): 21.2 µM (inactive)
GI50 (SNB-75): 67.3 µM (inactive)
GI50 (MOLT-4): 3.96 µM (inactive)
GI50 (PC-3): 8.38 µM (inactive)
GI50 (HCT-15): 8.39 µM
GI50 (OVCAR-5): 33.4 µM (inactive)
GI50 (CAKI-1): 42.6 µM (inactive)

Oc1c2c(c(O)c3ccccc13)C1(N=N2)c2ccccc2Oc2ccccc21
GI50 (A549): 10 µM (inactive)
GI50 (SF-268): 11.6 µM (inactive)
GI50 (Malme-3M): 2.48 µM (inactive)
GI50 (ACHN): 3.79 µM (inactive)
GI50 (SK-MEL-28): 11.4 µM (inactive)
GI50 (M14): 8.38 µM (inactive)
GI50 (HL-60): 7.03 µM (inactive)
GI50 (HT-29): 6.11 µM (inactive)
GI50 (TK-10): 6.98 µM (inactive)
GI50 (EKVX): 13 µM (inactive)
GI50 (SN12C): 6.46 µM (inactive)
GI50 (NCI-H522): 1.98 µM (inactive)
GI50 (A498): 19 µM (inactive)
GI50 (SNB-75): 17.3 µM (inactive)
GI50 (MOLT-4): 4.17 µM (inactive)
GI50 (PC-3): 12.5 µM (inactive)
GI50 (HCT-15): 2.65 µM
GI50 (OVCAR-5): 10.2 µM (inactive)
GI50 (CAKI-1): 10.3 µM (inactive)

O=c1[nH]c(=O)n(C2CC(O)C(CO)O2)cc1OCC1CCCCC1 (stereo not given)
GI50 (NCI-H226): > 100 µM (inactive)
GI50 (A549): > 100 µM (inactive)
GI50 (SF-268): > 100 µM (inactive)
GI50 (Malme-3M): > 100 µM (inactive)
GI50 (ACHN): > 100 µM (inactive)
GI50 (SK-MEL-28): > 100 µM (inactive)
GI50 (M14): > 100 µM (inactive)
GI50 (HL-60): > 100 µM (inactive)
GI50 (HT-29): > 100 µM (inactive)
GI50 (TK-10): > 100 µM (inactive)
GI50 (EKVX): > 100 µM (inactive)
GI50 (SN12C): > 100 µM (inactive)
GI50 (NCI-H522): > 100 µM (inactive)
GI50 (SNB-75): > 100 µM (inactive)
GI50 (MOLT-4): > 100 µM (inactive)
GI50 (PC-3): > 100 µM (inactive)
GI50 (HCT-15): > 100 µM
GI50 (OVCAR-5): > 100 µM (inactive)
GI50 (CAKI-1): > 100 µM (inactive)

CCCCCCOc1ccc(NC2=C(Cl)C(=O)c3ncccc3C2=O)cc1
GI50 (NCI-H226): 5.61 µM (inactive)
GI50 (A549): 2.49 µM (inactive)
GI50 (SF-268): 1.97 µM (inactive)
GI50 (Malme-3M): 1.91 µM (inactive)
GI50 (ACHN): > 10 µM (inactive)
GI50 (SK-MEL-28): 1.64 µM (inactive)
GI50 (M14): 1.88 µM (inactive)
GI50 (HT-29): 3.87 µM (inactive)
GI50 (TK-10): 4.31 µM (inactive)
GI50 (EKVX): > 10 µM (inactive)
GI50 (SN12C): 1.67 µM (inactive)
GI50 (A498): > 10 µM (inactive)
GI50 (SNB-75): 1.99 µM (inactive)
GI50 (MOLT-4): 2.24 µM (inactive)
GI50 (PC-3): 1.51 µM (inactive)
GI50 (HCT-15): 2.02 µM
GI50 (OVCAR-5): 7.35 µM (inactive)

O=C1CCCC2C(O)CCC[C@H]12 (stereo not given in full)
GI50 (NCI-H226): > 100 µM (inactive)
GI50 (A549): > 100 µM (inactive)
GI50 (SF-268): > 100 µM (inactive)
GI50 (Malme-3M): > 100 µM (inactive)
GI50 (ACHN): > 100 µM (inactive)
GI50 (SK-MEL-28): > 100 µM (inactive)
GI50 (M14): > 100 µM (inactive)
GI50 (HL-60): > 100 µM (inactive)
GI50 (HT-29): > 100 µM (inactive)
GI50 (TK-10): > 100 µM (inactive)
GI50 (EKVX): > 100 µM (inactive)
GI50 (SN12C): > 100 µM (inactive)
GI50 (NCI-H522): > 100 µM (inactive)
GI50 (SNB-75): > 100 µM (inactive)
GI50 (MOLT-4): > 100 µM (inactive)
GI50 (PC-3): > 100 µM (inactive)
GI50 (HCT-15): > 100 µM
GI50 (OVCAR-5): > 100 µM (inactive)
GI50 (CAKI-1): > 100 µM (inactive)

O=C(NNC(=O)c1ccc(Cl)cc1NC(=O)C12CC3CC(CC(C3)C1)C2)c1ccc(Cl)cc1
GI50 (NCI-H226): 22.7 µM (inactive)
GI50 (A549): 19.5 µM (inactive)
GI50 (SF-268): 29.9 µM (inactive)
GI50 (Malme-3M): 11.4 µM (inactive)
GI50 (ACHN): 23.6 µM (inactive)
GI50 (M14): 21.2 µM (inactive)
GI50 (HL-60): 25.7 µM (inactive)
GI50 (HT-29): 28.2 µM (inactive)
GI50 (TK-10): 20.1 µM (inactive)
GI50 (EKVX): 23.2 µM (inactive)
GI50 (SN12C): 27.7 µM (inactive)
GI50 (NCI-H522): 14.7 µM (inactive)
GI50 (MOLT-4): 30.1 µM (inactive)
GI50 (PC-3): 26.8 µM (inactive)
GI50 (HCT-15): 17.5 µM
GI50 (OVCAR-5): 28.3 µM (inactive)
GI50 (CAKI-1): 24.4 µM (inactive)

Cc1nn(C(=O)c2ccncc2)c2c1C(c1ccccc1[N+](=O)[O-])SC(=N)N2 (stereo not given)
GI50 (NCI-H226): > 10 µM (inactive)
GI50 (A549): > 10 µM (inactive)
GI50 (SF-268): > 10 µM (inactive)
GI50 (Malme-3M): > 10 µM (inactive)
GI50 (ACHN): > 10 µM (inactive)
GI50 (SK-MEL-28): > 10 µM (inactive)
GI50 (M14): > 10 µM (inactive)
GI50 (HL-60): > 10 µM (inactive)
GI50 (HT-29): > 10 µM (inactive)
GI50 (TK-10): > 10 µM (inactive)
GI50 (EKVX): > 10 µM (inactive)
GI50 (SN12C): > 10 µM (inactive)
GI50 (SNB-75): > 10 µM (inactive)
GI50 (MOLT-4): > 10 µM (inactive)
GI50 (PC-3): > 10 µM (inactive)
GI50 (HCT-15): > 10 µM
GI50 (OVCAR-5): > 10 µM (inactive)
GI50 (CAKI-1): > 10 µM (inactive)
